Measured values as given in patent US20120108629A1, “New use of neferine” (Institute of Chinese Materia Medica, China Academy, priority 2009, published 2012).

Assays:
[1] = test system: TRPV1 mRNA; assay: TRPV1 mRNA expression in DRG cells by real-time PCR; type: cell-based, rat; settings: for TRPV1 mRNA expression (2^−ΔΔCT): 37° C. 24 h
[2] = test system: Cancer gene-containing human breast epithelial cell line MCF10A-Myc; assay: Inhibition on proliferation, MCF10A-Myc; type: cell-based; settings: 72 h incubation
Description: (§1) Inhibition on proliferation of human cancer cells: It is reported that the drugs that up-regulate TRPM8 or down-regulate TRPV1 can inhibit proliferation of breast cancer. To further investigate whether neferine follow the same way, human breast cancer cell line MDA-MB-231 and MDA-MB-453 as well as cancer gene-containing human breast gland epithelial cell line MCF10A-Myc and human pancreatic cancer cell line MIAPaCa-2 were employed and cultured in DMEM or DMEM/F12 medium with epithelial growth factor in vitro. After incubation with various concentrations of test agents for 72 h, the effective concentration of them for inhibiting the tumor cells was assayed according to the common method in the art.
(§2) According to the “Inhibition on proliferation of human cancer cells” described above, the effective concentrations of neferine for the inhibition of tumors were obtained (table 11).

[3] = test system: breast cancer cells; assay: Inhibition on proliferation of human cancer cells, breast cancer cells; type: cell-based
Description: as §1, §2

[4] = test system: Human breast cancer cell line MDA-MB-231; assay: Inhibition on proliferation of human cancer cells, MDA-MB-231; type: cell-based; settings: MDA-MB-231, 72 h incubation
Description: as §1, §2

[5] = target: TRPV1 (Rattus norvegicus, UniProt O35433); assay: Intracellular calcium change in DRG cells, Fluo-4 fluorescence (Examples 9-11, Tables 9-11); type: cell-based
Sequence of TRPV1 (Rattus norvegicus, UniProt O35433) (O35433 whole entry): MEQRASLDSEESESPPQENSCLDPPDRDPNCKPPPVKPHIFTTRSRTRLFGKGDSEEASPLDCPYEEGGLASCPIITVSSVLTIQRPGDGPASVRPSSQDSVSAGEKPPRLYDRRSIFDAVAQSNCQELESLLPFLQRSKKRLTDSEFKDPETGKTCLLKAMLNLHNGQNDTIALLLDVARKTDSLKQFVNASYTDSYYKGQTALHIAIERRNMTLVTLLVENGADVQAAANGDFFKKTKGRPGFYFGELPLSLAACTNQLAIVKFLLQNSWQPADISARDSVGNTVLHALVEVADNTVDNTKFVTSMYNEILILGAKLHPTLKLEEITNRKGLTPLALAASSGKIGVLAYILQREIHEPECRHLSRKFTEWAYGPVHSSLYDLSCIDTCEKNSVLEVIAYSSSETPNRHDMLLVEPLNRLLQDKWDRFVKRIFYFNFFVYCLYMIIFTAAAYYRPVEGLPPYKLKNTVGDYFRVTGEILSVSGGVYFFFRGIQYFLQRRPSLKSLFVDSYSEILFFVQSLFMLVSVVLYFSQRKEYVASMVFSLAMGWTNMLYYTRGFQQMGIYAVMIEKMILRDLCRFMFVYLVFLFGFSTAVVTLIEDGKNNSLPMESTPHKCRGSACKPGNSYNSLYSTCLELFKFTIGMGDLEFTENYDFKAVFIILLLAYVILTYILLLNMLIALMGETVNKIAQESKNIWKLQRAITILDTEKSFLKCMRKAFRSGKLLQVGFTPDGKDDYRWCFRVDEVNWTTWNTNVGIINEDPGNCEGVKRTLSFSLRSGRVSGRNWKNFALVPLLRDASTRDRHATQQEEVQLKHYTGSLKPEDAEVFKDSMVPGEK
Method: (§3) Detection of intracellular calcium concentrations of DRG cells: DRG cells cultured under normal, low and high temperature conditions was obtained. The medium was discarded and the cells were washed after certain time. 0.1%F-127, 5 μM of Fluo-4-AM, M fluorescent dye were added and loaded at 25° C. out of light for 30 min. After dye loading, the redundant dye was washed out and buffer and test compounds were added respectively. The cells were put in a closed chamber on a microscope stage. Fluorescence dyed cells were detected with appropriate conditions. The change of fluorescence intensity in each cell was determined and the data were analyzed by software. The change of the intracellular calcium concentration was indicated by fluorescence intensity. The change degree of the intracellular calcium concentration was represented by the percent ratio of the change value of fluorescence intensity before and after administration and the value of fluorescence intensity before administration (Δ[Ca2+]i), i.e. Δ[Ca2+]i=(fluorescence intensity value after administration F-fluorescence intensity value before administration F0)/fluorescence intensity value before administration F0×100%. The change of the intracellular calcium concentration indicated the function of TRP.
(§4) The medium was discarded and the fluorescent dye was added and loaded for 30 min. The change of fluorescence intensity in cell was determined in a closed chamber on a microscope stage and the change of the intracellular calcium concentration was assayed.
as §4
(this is the appropriate stimulation time for the intracellular calcium change after stimulation under 19° C., and the experiment data was not shown). The medium was discarded and the fluorescent dye was added and loaded for 30 min.

[6] = test system: TRPV1; assay: Intracellular calcium change in DRG cells, Fluo-4 fluorescence (Examples 4-5, Tables 4-5); type: cell-based, rat
Method: as §3, §4, §4

[7] = test system: Human pancreas cancer cell line MIAPaCa-2; assay: Inhibition on proliferation of human cancer cells, MIAPaCa-2; type: cell-based
Description: as §1, §2

[8] = test system: Human breast cancer cell line MDA-MB-453; assay: Inhibition on proliferation of human cancer cells, MDA-MB-453; type: cell-based; settings: MDA-MB-453, 72 h incubation
Description: as §1, §2

[9] = test system: TRPM8 mRNA; assay: TRPM8 mRNA expression in DRG cells by real-time PCR; settings: for Effect on TRPM8 mRNA expression (in words) / TRPM8 mRNA expression (2^−ΔΔCT): DRG cells
Method: DRG were aseptically removed and meticulously cleaned the rootlets and connective tissue. The tissue was digested with collagenase and trypsin in succession, and then centrifuged and the digestive liquid was discarded. Cells were prepared into single cell suspension in common culture medium, and then calculated and adjusted to 10^5 nerve cells per ml. It was incubated in culture plates pre-coated with laminin at 37° C. in 5% CO2 for 48 hours. Camptothecine was used to inhibit proliferation of other cells. Culture was continued to obtain DRG cells with a high purity (>98%).
Detection of TRPM8 and TRPV1 mRNA expression: The total RNA of the DRG neuronal cells was extracted in a routine way, after exposure to the tested agents of various concentrations under the normal, low and high temperature conditions respectively. The concentration of RNA was measured and its cDNA was prepared. The desired amount of resulting cDNA and TRPM8 or TRPV1 gene primers were added on the IQ5-Type real-time IQ5-Type real-time PCR meter with GAPDH as the endogenous control to perform extension. Melting curves were generated. Relative gene expression was calculated using the comparative threshold cycle (2-^ΔΔCT) method with the calculated formula as following:
ΔΔCt=(Ct,Target-Ct,GAPDH)x-(Ct,Target-Ct,GAPDH)Control
X represents any one of tested, Control represents double target gene expression after GAPDH correction.
The purified culture medium of DRG cells was added with three different concentrations of test compounds and cultured at 37° C. in 5% CO2 for 24 h. The total RNA was extracted immediately after culture. The TRPM8 agonist hexahydrothymol was positive control group and the normal culture medium was vehicle control group. Then the real-time PCR amplification was performed and TRPM8 mRNA was determined.
The purified culture medium of DRG cells was added with three different concentrations of test compounds and cultured at 37° C. in 5% CO2 for 23 h followed by 39° C. in 5% CO2 for 1 h. The total RNA was extracted immediately after culture. The TRPM8 agonist hexahydrothymol was positive control group and the normal culture medium was vehicle control group. Then the real-time PCR amplification was performed and TRPM8 mRNA was determined.
The purified culture medium of DRG cells was added with three different concentrations of test compounds and cultured at 37° C. in 5% CO2 for 22 h followed by 19° C. in 5% CO2 for 2 h. The total RNA was extracted immediately after culture. The TRPM8 agonist hexahydrothymol was positive control group and the normal culture medium was vehicle control group. Then the real-time PCR amplification was performed and TRPM8 mRNA was determined.

[10] = 37° C. 22 h then 19° C. 2 h, 2.5 μmol/L
[11] = 37° C. 22 h then 19° C. 2 h, 5 μmol/L
[12] = 37° C. 22 h then 19° C. 2 h, 10 μmol/L
[13] = 37° C. 23 h then 39° C. 1 h, 2.5 μmol/L
[14] = 37° C. 23 h then 39° C. 1 h, 5 μmol/L
[15] = 37° C. 23 h then 39° C. 1 h, 10 μmol/L

Substance: neferine
- Effect on TRPV1 mRNA expression (in words) ([1]; 19° C.): further inhibit expression levels of TRPV1 mRNA dose-dependently
- TRP V1 mRNA expression(2^−ΔΔCT) [1, 10]: 0.54 ± 0.17
- TRP V1 mRNA expression(2^−ΔΔCT) [1, 11]: 0.47 ± 0.20
- TRP V1 mRNA expression(2^−ΔΔCT) [1, 12]: 0.45 ± 0.23
- TRP V1 mRNA expression(2^−ΔΔCT) [1, 13]: 4.16 ± 0.71
- TRP V1 mRNA expression(2^−ΔΔCT) [1, 14]: 3.70 ± 0.69
- TRP V1 mRNA expression(2^−ΔΔCT) [1, 15]: 3.13 ± 0.51
- TRPV1 mRNA expression (2^−ΔΔCT) ([1]; 2.5 μmol): 0.96 ± 0.41
- TRPV1 mRNA expression (2^−ΔΔCT) ([1]; 5 μmol): 1.09 ± 0.30
- TRPV1 mRNA expression (2^−ΔΔCT) ([1]; 10 μmol): 1.04 ± 0.43
- Effect on TRPV1 mRNA expression (in words) ([1]; 37° C., under the test concentrations): could not change expression levels of TRPV1 mRNA
- Effect on TRPV1 mRNA expression (in words) ([1]; 39° C.): decrease the expression levels of TRPV1 mRNA dose-dependently
- Inhibition concentration [2]: 5.95 µg/mL
- inhibition concentration on breast cancer cells [3]: below 2.1 μg/ml
- Inhibition concentration [4]: 1.30 µg/mL
- Effect on intracellular calcium concentration (in words) ([5]; Example 9, DRG cells, 37° C.): decrease the concentration of intracellular calcium dose-dependently
- correlation coefficient of dose dependence, intracellular calcium ([5]; Example 9, DRG cells, 37° C.): −0.85
- Effect on intracellular calcium concentration (in words) ([5]; Example 10, DRG cells, 39° C.): inhibit the change of the intracellular calcium concentration dose-dependently
- correlation coefficient of dose dependence, intracellular calcium ([5]; Example 10, DRG cells, 39° C.): −0.815
- Effect on intracellular calcium concentration (in words) ([5]; Example 11, DRG cells, 19° C.): further inhibit the change of the intracellular calcium concentration dose-dependently
- correlation coefficient of dose dependence, intracellular calcium ([5]; Example 11, DRG cells, 19° C.): −0.99
- Intracellular Calcium changes [(F1 − F0)/F0/%] ([5]; Table 9, DRG cells, 37° C. 24 h, 2.5 μmol/L): 98.15 ± 10.71%
- Intracellular Calcium changes [(F1 − F0)/F0/%] ([5]; Table 9, DRG cells, 37° C. 24 h, 5 μmol/L): 98.64 ± 12.77%
- Intracellular Calcium changes [(F1 − F0)/F0/%] ([5]; Table 9, DRG cells, 37° C. 24 h, 10 μmol/L): 96.33 ± 8.96%
- Intracellular Calcium changes [(F1 − F0)/F0/%] ([5]; Table 10, DRG cells, 37° C. 22 h then 39° C. 2 h, 2.5 μmol/L): 128.63 ± 14.40%
- Intracellular Calcium changes [(F1 − F0)/F0/%] ([5]; Table 10, DRG cells, 37° C. 22 h then 39° C. 2 h, 5 μmol/L): 120.51 ± 11.29%
- Intracellular Calcium changes [(F1 − F0)/F0/%] ([5]; Table 10, DRG cells, 37° C. 22 h then 39° C. 2 h, 10 μmol/L): 119.49 ± 11.21%
- Intracellular Calcium changes [(F1 − F0)/F0/%] ([5]; Table 11, DRG cells, 37° C. 21 h then 19° C. 3 h, 2.5 μmol/L): 99.71 ± 10.96%
- Intracellular Calcium changes [(F1 − F0)/F0/%] ([5]; Table 11, DRG cells, 37° C. 21 h then 19° C. 3 h, 5 μmol/L): 98.30 ± 11.89%
- Intracellular Calcium changes [(F1 − F0)/F0/%] ([5]; Table 11, DRG cells, 37° C. 21 h then 19° C. 3 h, 10 μmol/L): 93.02 ± 10.54%
- Effect on intracellular calcium concentration (in words) ([6]; Example 4, DRG cells, 37° C.): increase the intracellular calcium concentration dose-dependently
- Intracellular Calcium changes [(F1 − F0)/F0/%] ([6]; Table 4, DRG cells, 37° C. 24 h, 2.5 μmol/L): 121.41 ± 10.05%
- Intracellular Calcium changes [(F1 − F0)/F0/%] ([6]; Table 4, DRG cells, 37° C. 24 h, 5 μmol/L): 128.16 ± 11.48%
- Intracellular Calcium changes [(F1 − F0)/F0/%] ([6]; Table 4, DRG cells, 37° C. 24 h, 10 μmol/L): 132.07 ± 19.30 %
- Intracellular Calcium changes [(F1 − F0)/F0/%] ([6]; Table 5, DRG cells, 37° C. 22 h then 39° C. 2 h, 2.5 μmol/L): 107.88 ± 13.07%
- Intracellular Calcium changes [(F1 − F0)/F0/%] ([6]; Table 5, DRG cells, 37° C. 22 h then 39° C. 2 h, 5 μmol/L): 108.09 ± 12.85%
- Intracellular Calcium changes [(F1 − F0)/F0/%] ([6]; Table 5, DRG cells, 37° C. 22 h then 39° C. 2 h, 10 μmol/L): 112.72 ± 11.74 %
- Inhibition concentration ([7]; MIAPaCa-2, 72 h incubation): 3.64 µg/mL
- inhibition concentration for pancreas ([7]; pancreas cancer cells): below 4 μg/ml
- Inhibition concentration [8]: 2.05 µg/mL
- Effect on TRPM8 mRNA expression (in words) ([9]; 19° C.): up-regulate the expression levels of TRPM8 mRNA dose-dependently
- Effect on TRPM8 mRNA expression (in words) ([9]; 37° C.): up-regulate the expression levels of TRPM8 mRNA dose-dependently
- TRPM8 mRNA expression (2^−ΔΔCT) [9, 10]: 3.25 ± 0.65
- TRPM8 mRNA expression (2^−ΔΔCT) [9, 11]: 3.37 ± 0.87
- TRPM8 mRNA expression (2^−ΔΔCT) [9, 12]: 3.49 ± 0.82
- TRPM8 mRNA expression (2^−ΔΔCT) [9, 13]: 0.74 ± 0.23
- TRPM8 mRNA expression (2^−ΔΔCT) [9, 14]: 0.78 ± 0.33
- TRPM8 mRNA expression (2^−ΔΔCT) [9, 15]: 0.79 ± 0.24
- TRPM8 mRNA expression (2^−ΔΔCT) ([9]; 37° C. 24 h, 2.5 μmol/L): 1.10 ± 0.27
- TRPM8 mRNA expression (2^−ΔΔCT) ([9]; 37° C. 24 h, 5 μmol/L): 1.14 ± 0.31
- TRPM8 mRNA expression (2^−ΔΔCT) ([9]; 37° C. 24 h, 10 μmol/L): 1.28 ± 0.27
- Effect on TRPM8 mRNA expression (in words) ([9]; 39° C.): did not up-regulate TRPM8 mRNA expression
- Effect compared with the agonist hexahydrothymol (in words) ([9]; general statement on TRPM8): stronger effect than hexahydrothymol
